Converted amounts (≈) assume the structure as drawn.
Key:
Assay type in all cases: functional
[1] = tested on: Neisseria gonorrhoeae; test: Antibacterial activity against Neisseria gonorrhoeae isolate SM1 expressing SF-A mosaic penA allele by agar dilution method
[2] = tested on: Neisseria gonorrhoeae; test: Antibacterial activity against Neisseria gonorrhoeae isolate SM2 expressing SF-A mosaic penA allele by agar dilution method
[3] = tested on: Neisseria gonorrhoeae; test: Antibacterial activity against Neisseria gonorrhoeae isolate SM3 expressing SF-A mosaic penA allele by agar dilution method
[4] = tested on: Neisseria gonorrhoeae; test: Antibacterial activity against Neisseria gonorrhoeae isolate SM4 expressing SF-B mosaic penA allele by agar dilution method
[5] = tested on: Neisseria gonorrhoeae; test: Antibacterial activity against Neisseria gonorrhoeae isolate SM5 expressing SF-B mosaic penA allele by agar dilution method
[6] = tested on: Neisseria gonorrhoeae; test: Antibacterial activity against Neisseria gonorrhoeae isolate SW1 expressing nonmosaic penA allele by agar dilution method
[7] = tested on: Neisseria gonorrhoeae; test: Antibacterial activity against Neisseria gonorrhoeae isolate SW2 expressing nonmosaic penA allele by agar dilution method

Structure (SMILES) | MIC [1] [µg/mL] | MIC [2] [µg/mL] | MIC [3] [µg/mL] | MIC [4] [µg/mL] | MIC [5] [µg/mL] | MIC [6] [µg/mL] | MIC [7] [µg/mL]
COCC1=C(C(=O)O)N2C(=O)[C@@H](NC(=O)/C(=N\OC)c3csc(N)n3)[C@H]2SC1 [CEFPODOXIME] | 1 (≈ 2.34 µM) | 0.5 (≈ 1.17 µM) | 1 (≈ 2.34 µM) | 0.06 (≈ 0.14 µM) | 0.25 (≈ 0.585 µM) | 0.015 (≈ 0.0351 µM) | 0.03 (≈ 0.0702 µM)
CO/N=C(\C(=O)N[C@@H]1C(=O)N2C(C(=O)O)=C(CSc3nc(=O)c(O)nn3C)CS[C@H]12)c1csc(N)n1 [CEFTRIAXONE] | 0.06 (≈ 0.108 µM) | 0.06 (≈ 0.108 µM) | 0.03 (≈ 0.0541 µM) | ≤ 0.008 | ≤ 0.008 | ≤ 0.008 | ≤ 0.008
C=CC1=C(C(=O)O)N2C(=O)[C@@H](NC(=O)/C(=N\OCC(=O)O)c3csc(N)n3)[C@H]2SC1 [CEFIXIME] | 0.25 (≈ 0.551 µM) | 0.125 (≈ 0.276 µM) | 0.25 (≈ 0.551 µM) | ≤ 0.008 | 0.015 (≈ 0.0331 µM) | ≤ 0.008 | 0.015 (≈ 0.0331 µM)
